Assay results: PMC9062088 (RSC Advances, 2019)

Columns and labels:
[1] = molecular target: T1, human TyrRS (Homo sapiens, UniProt P54577); test: ATP–pyrophosphate exchange assay; assay type: biochemical; conditions: for inhibitory effect on human TyrRS (SAR statement in words): 100 μM screening data of Tables 1 and 2; for remaining activity at 100 µM: read-out: Enzyme activity@100 μM (%)
T1 sequence (P54577 1-341): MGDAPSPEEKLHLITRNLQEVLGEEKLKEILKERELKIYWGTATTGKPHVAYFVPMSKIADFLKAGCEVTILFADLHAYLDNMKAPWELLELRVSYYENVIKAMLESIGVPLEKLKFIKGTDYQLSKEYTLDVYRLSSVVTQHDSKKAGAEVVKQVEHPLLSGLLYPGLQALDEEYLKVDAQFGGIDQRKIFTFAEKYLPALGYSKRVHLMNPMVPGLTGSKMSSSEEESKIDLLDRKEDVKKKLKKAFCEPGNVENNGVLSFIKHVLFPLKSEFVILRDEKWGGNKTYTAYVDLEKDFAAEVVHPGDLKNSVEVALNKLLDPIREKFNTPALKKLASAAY

[2] = test system: HeLa cells; test: Detection of DNA damage in cells; assay type: cell-based, human; conditions: pre-treated 24 h (0.37-30 μM), then 30 μM cisplatin 24 h, immunoblot
[3] = test system: HeLa cells; test: Cellular localization of TyrRS; assay type: cell-based, human; conditions: HeLa cells, 1.1, 3.3, 10 or 30 μM, 8 h, immunoblot

| inhibitory effect on human TyrRS (SAR statement in words) [1] | remaining activity at 100 µM [1] [%] | Structure (SMILES) | level of γ-H2A.X (DNA damage) [2] | TyrRS nuclear localization [3] |
| --- | --- | --- | --- | --- |
| substantially diminished activity | 88.9 | COc1ccccc1Sc1c(O)c(Sc2ccccc2OC)c2oc(-c3ccccc3)cc(=O)c2c1O [Compound 3] | – | – |
| substantially diminished activity | 75.9 | Cc1ccccc1Sc1c(O)c(Sc2ccccc2C)c2oc(-c3ccccc3)cc(=O)c2c1O [Compound 8] | – | – |
| substantially diminished activity | 85.3 | CC(C)(C)c1ccc(Sc2c(O)c(Sc3ccc(C(C)(C)C)cc3)c3oc(-c4ccccc4)cc(=O)c3c2O)cc1 [Compound 9] | – | – |
| – | – | O=c1cc(-c2ccccc2)oc2c(Sc3cccc(O)c3)c(O)c(Sc3cccc(O)c3)c(O)c12 [Compound 11, 5,7-dihydroxy-6,8-bis((3-hydroxyphenyl)thio)-2-phenyl-4H-chromen-4-one] | dramatically decreased | dramatically promoted the nuclear localization of TyrRS |
| – | 68.5 | COc1cc(O)c(Sc2cccc(F)c2)c2oc(-c3ccccc3)cc(=O)c12 [Compound 15] | – | – |
| – | 76.4 | COc1cc(O)c(Sc2ccc(F)cc2)c2oc(-c3ccccc3)cc(=O)c12 [Compound 16] | – | – |
| – | 73.8 | COc1cc(O)c(Sc2ccccc2F)c2oc(-c3ccccc3)cc(=O)c12 [Compound 18] | – | – |
| – | 73.9 | COc1ccc(Sc2c(O)cc(OC)c3c(=O)cc(-c4ccccc4)oc23)cc1 [Compound 21] | – | – |
| – | 93.2 | O=c1cc(-c2ccccc2)oc2c(Sc3cccc(O)c3)c(O)cc(O)c12 [Compound 26] | – | – |
| – | 81.9 | O=c1cc(-c2ccccc2)oc2c(Sc3ccccc3O)c(O)cc(O)c12 [Compound 29] | – | – |
